In patent US10405547B2, “Substituted cyclic amides as herbicides” (FMC Corporation, priority 2015, dated 2019):

How the values were obtained:
Assay type in all cases: in vivo
[1] = system: barnyardgrass (Echinochloa crus-galli); test: Test A preemergence, barnyardgrass; settings: 0 to 100 scale (0 no effect, 100 complete control)
Outline: (§1)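 Greenhouse pot test in loam/sand soil. Pre: directed soil spray after seeding. Post: 1–2-leaf plants, 2–10 cm. Formulation: non-phytotoxic solvent + surfactant. Visual rating vs untreated controls at ~10 d, 0 (no effect) to 100 (complete control).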

kochia (Kochia scoparia) [2] = test: Test A preemergence, kochia; settings: 0 to 100 scale (0 no effect, 100 complete control)
Outline: as §1

[3] = system: ragweed (common ragweed, Ambrosia elatior); test: Test A preemergence, ragweed; settings: 0 to 100 scale (0 no effect, 100 complete control)
Outline: as §1

[4] = system: ryegrass, Italian (Lolium multiflorum); test: Test A preemergence, Italian ryegrass; settings: 0 to 100 scale (0 no effect, 100 complete control)
Outline: as §1

[5] = system: foxtail, giant (Setaria faberii); test: Test A preemergence, giant foxtail; settings: 0 to 100 scale (0 no effect, 100 complete control)
Outline: as §1

[6] = system: pigweed (Amaranthus retroflexus); test: Test A preemergence, pigweed; settings: 0 to 100 scale (0 no effect, 100 complete control)
Outline: as §1

[7] = system: barnyardgrass (Echinochloa crus-galli); test: Test A postemergence, barnyardgrass; settings: visual injury, 0 to 100 scale (0 no effect, 100 complete control), approximately 10 days
Outline: as §1

kochia (Kochia scoparia) [8] = test: Test A postemergence, kochia; settings: visual injury, 0 to 100 scale (0 no effect, 100 complete control), approximately 10 days
Outline: as §1

[9] = system: ragweed (common ragweed, Ambrosia elatior); test: Test A postemergence, ragweed; settings: visual injury, 0 to 100 scale (0 no effect, 100 complete control), approximately 10 days
Outline: as §1

[10] = system: ryegrass, Italian (Lolium multiflorum); test: Test A postemergence, Italian ryegrass; settings: visual injury, 0 to 100 scale (0 no effect, 100 complete control), approximately 10 days
Outline: as §1

[11] = system: foxtail, giant (Setaria faberii); test: Test A postemergence, giant foxtail; settings: visual injury, 0 to 100 scale (0 no effect, 100 complete control), approximately 10 days
Outline: as §1

[12] = system: pigweed (Amaranthus retroflexus); test: Test A postemergence, pigweed; settings: visual injury, 0 to 100 scale (0 no effect, 100 complete control), approximately 10 days
Outline: as §1

[13] = system: blackgrass (Alopecurus myosuroides); test: Test A postemergence, blackgrass; settings: visual injury, 0 to 100 scale (0 no effect, 100 complete control), approximately 10 days
Outline: as §1

[14] = system: galium (catchweed bedstraw, Galium aparine); test: Test A postemergence, galium; settings: visual injury, 0 to 100 scale (0 no effect, 100 complete control), approximately 10 days
Outline: as §1

[15] = system: wheat (Triticum aestivum); test: Test A postemergence, wheat; settings: visual injury, 0 to 100 scale (0 no effect, 100 complete control), approximately 10 days
Outline: as §1

corn (Zea mays) = test: Test A postemergence, corn; settings: visual injury, 0 to 100 scale (0 no effect, 100 complete control), approximately 10 days
Outline: as §1

rice (Oryza sativa) = test: Test B flooded paddy test, rice; settings: 250 g ai/ha, applied to paddy water, visual rating after 13 to 15 days, scale 0 (no effect) to 100 (complete control)
Excerpt: (§2) At time of treatment, test pots were flooded to 3 cm above the soil surface, treated by application of test compounds directly to the paddy water, and then maintained at that water depth for the duration of the test. Treated plants and controls were maintained in a greenhouse for 13 to 15 days, after which time all species were compared to controls and visually evaluated. […] A dash (-) response means no test result.

[16] = system: sedge, umbrella (small-flower umbrella sedge, Cyperus difformis); test: Test B flooded paddy test, umbrella sedge; settings: 250 g ai/ha, applied to paddy water, visual rating after 13 to 15 days, scale 0 (no effect) to 100 (complete control)
Excerpt: as §2

[17] = system: ducksalad (Heteranthera limosa); test: Test B flooded paddy test, ducksalad; settings: 250 g ai/ha, applied to paddy water, visual rating after 13 to 15 days, scale 0 (no effect) to 100 (complete control)
Excerpt: as §2

[18] = system: barnyardgrass (Echinochloa crus-galli); test: Test B flooded paddy test, barnyardgrass; settings: 250 g ai/ha, applied to paddy water, visual rating after 13 to 15 days, scale 0 (no effect) to 100 (complete control)
Excerpt: as §2

Compound	Plant response rating, Barnyardgrass ([1]; 125 g ai/ha)	Plant response rating, Barnyardgrass ([1]; 500 g ai/ha)	Plant response rating, Kochia (kochia (Kochia scoparia) [2]; 125 g ai/ha)	Plant response rating, Kochia (kochia (Kochia scoparia) [2]; 500 g ai/ha)	Plant response rating, Ragweed ([3]; 125 g ai/ha)	Plant response rating, Ragweed ([3]; 500 g ai/ha)	Plant response rating, Ryegrass, Italian ([4]; 125 g ai/ha)	Plant response rating, Ryegrass, Italian ([4]; 500 g ai/ha)	Plant response rating, Foxtail, Giant ([5]; 125 g ai/ha)	Plant response rating, Foxtail, Giant ([5]; 500 g ai/ha)	Plant response rating, Pigweed ([6]; 125 g ai/ha)	Plant response rating, Pigweed ([6]; 500 g ai/ha)	Plant response rating, Barnyardgrass ([7]; 125 g ai/ha)	Plant response rating, Barnyardgrass ([7]; 500 g ai/ha)	Plant response rating, Ragweed ([9]; 125 g ai/ha)	Plant response rating, Ragweed ([9]; 500 g ai/ha)	Plant response rating, Ryegrass, Italian ([10]; 125 g ai/ha)	Plant response rating, Ryegrass, Italian ([10]; 500 g ai/ha)	Plant response rating, Foxtail, Giant ([11]; 125 g ai/ha)	Plant response rating, Foxtail, Giant ([11]; 500 g ai/ha)	also measured
CN1CC(c2cccc(Oc3ncc(F)cn3)c2)C(C(=O)Nc2cccc(F)c2F)C1=O (single isomer, unassigned) [Compound 38]	90	100	30	70	40	80	80	100	100	100	80	100	100	100	20	80	70	80	90	90	Plant response rating, Kochia (kochia (Kochia scoparia) [8]; 125 g ai/ha): 30; Plant response rating, Kochia (kochia (Kochia scoparia) [8]; 500 g ai/ha): 60; Plant response rating, Pigweed ([12]; 125 g ai/ha): 50; Plant response rating, Pigweed ([12]; 500 g ai/ha): 70; Plant response rating, Blackgrass ([13]; 125 g ai/ha): 70; Plant response rating, Blackgrass ([13]; 500 g ai/ha): 70; Plant response rating, Galium ([14]; 125 g ai/ha): 50; Plant response rating, Galium ([14]; 500 g ai/ha): 70; Plant response rating, Wheat ([15]; 125 g ai/ha): 50; Plant response rating, Wheat ([15]; 500 g ai/ha): 70; Plant response rating, Corn (corn (Zea mays); 125 g ai/ha): 90; Plant response rating, Corn (corn (Zea mays); 500 g ai/ha): 100; Plant response rating, Rice (Flood) (rice (Oryza sativa)): 0; Plant response rating, Sedge, Umbrella (Flood) [16]: 0; Plant response rating, Ducksalad (Flood) [17]: 80; Plant response rating, Barnyardgrass (Flood) [18]: 60
CN1CC(c2cccc(Oc3ccc(F)cn3)c2)C(C(=O)Nc2cccc(F)c2F)C1=O (single isomer, unassigned) [Compound 61]	90	90	60	80	30	60	80	90	90	90	70	90	70	80	40	50	70	70	90	90	Plant response rating, Pigweed ([12]; 125 g ai/ha): 40; Plant response rating, Pigweed ([12]; 500 g ai/ha): 70; Plant response rating, Blackgrass ([13]; 125 g ai/ha): 40; Plant response rating, Blackgrass ([13]; 500 g ai/ha): 50; Plant response rating, Galium ([14]; 125 g ai/ha): 60; Plant response rating, Galium ([14]; 500 g ai/ha): 70; Plant response rating, Wheat ([15]; 125 g ai/ha): 50; Plant response rating, Wheat ([15]; 500 g ai/ha): 80; Plant response rating, Corn (corn (Zea mays); 125 g ai/ha): 70; Plant response rating, Corn (corn (Zea mays); 500 g ai/ha): 90; Plant response rating, Rice (Flood) (rice (Oryza sativa)): 0; Plant response rating, Sedge, Umbrella (Flood) [16]: 0; Plant response rating, Ducksalad (Flood) [17]: 100; Plant response rating, Barnyardgrass (Flood) [18]: 40
O=C1NCC(c2cccc(Oc3ccc(C(F)(F)F)cn3)c2)C1C(=O)Nc1ccccc1F (single isomer, unassigned) [Compound 62]	90	90	30	60	0	50	0	20	90	90	30	50	70	90	0	40	0	30	80	90	Plant response rating, Pigweed ([12]; 125 g ai/ha): 0; Plant response rating, Pigweed ([12]; 500 g ai/ha): 30; Plant response rating, Blackgrass ([13]; 125 g ai/ha): 0; Plant response rating, Blackgrass ([13]; 500 g ai/ha): 30; Plant response rating, Galium ([14]; 125 g ai/ha): 30; Plant response rating, Galium ([14]; 500 g ai/ha): 60; Plant response rating, Wheat ([15]; 125 g ai/ha): 0; Plant response rating, Wheat ([15]; 500 g ai/ha): 30; Plant response rating, Corn (corn (Zea mays); 125 g ai/ha): 30; Plant response rating, Corn (corn (Zea mays); 500 g ai/ha): 30; Plant response rating, Rice (Flood) (rice (Oryza sativa)): 20; Plant response rating, Sedge, Umbrella (Flood) [16]: 0; Plant response rating, Ducksalad (Flood) [17]: 100; Plant response rating, Barnyardgrass (Flood) [18]: 40
